Experimental data published in patent US8163777B2, “Benzimidazolyl-pyridine compounds for inflammation and immune-related uses” (Synta Pharmaceuticals Corp., priority 2006, dated 2012).

Test system: IL-2 production
Experiment: Inhibition of IL-2 production in PHA-activated Jurkat cells (ELISA)
Format: cell-based
Conditions: Homo sapiens, PHA 2.5 μg/mL, 20 hours
Procedure: Jurkat cells were placed in a 96 well plate (0.5 million cells per well in 1% FBS medium) then test compounds of this invention were added at different concentrations. After 10 minutes, the cells were activated with PHA (final concentration 2.5 μg/mL) and incubated for 20 hours at 37° C. under CO2. The final volume was 200 μL. Following incubation, the cells were centrifuged and the supernatants collected and stored at −70° C. prior to assaying for IL-2 production. A commercial ELISA kit (IL-2 Eli-pair, Diaclone Research, Besancon, France) was used to detect production of IL-2, from which dose response curves were obtained. The IC50 value was calculated as the concentration at which 50% of maximum IL-2 production after stimulation was inhibited versus a non-stimulation control.

[1] = bin given with mixed units 500 nM-1 μM

Row | SMILES | IC50 (binned values) | IC50 [1]
1 | COc1ccc2c(c1)nc(C(F)(F)F)n2-c1ccc(NC(=O)c2cccc(C#N)c2)nc1 [Compound 183, 3-Cyano-N-[5-(5-methoxy-2-trifluoromethyl-benzoimidazol-1-yl)-pyridin-2-yl]-benzamide] | 0.1 to 0.5 µM | 
2 | COc1ccc2c(c1)nc(C(F)(F)F)n2-c1ccc(NC(=O)c2cccc([N+](=O)[O-])c2)nc1 [Compound 184, N-[5-(5-Methoxy-2-trifluoromethyl-benzoimidazol-1-yl)-pyridin-2-yl]-3-nitro-benzamide] | 0.1 to 0.5 µM | 
3 | COc1ccc2c(c1)nc(C(F)(F)F)n2-c1ccc(NC(=O)c2ccc(C#N)cc2)nc1 [Compound 166, 4-Cyano-N-[5-(5-methoxy-2-trifluoromethyl-benzoimidazol-1-yl)-pyridin-2-yl]-benzamide] | 0.1 to 0.5 µM | 
4 | COc1ccc2c(c1)nc(C(F)(F)F)n2-c1ccc(NC(=O)c2cccc(C(F)(F)F)c2)cc1 [Compound 91, 3-Trifluoromethyl-N-[4-(2-trifluoromethyl-5-methoxy-benzoimidazol-1-yl)-phenyl]-benzamide] |  | 0.5 to 1 µM
5 | COc1ccc2c(c1)nc(C(F)(F)F)n2-c1ccc(NC(=O)C(C)(C)C)nc1 [Compound 213, N-[5-(5-Methoxy-2-trifluoromethyl-benzoimidazol-1-yl)-pyridin-2-yl]-2,2-dimethyl-propionamide] | > 1 µM | 
6 | COc1ccc2c(c1)nc(C(F)(F)F)n2-c1ccc(NC(=O)c2cccc(Cl)c2)nc1 [Compound 179, 3-Chloro-N-[5-(5-methoxy-2-trifluoromethyl-benzoimidazol-1-yl)-pyridin-2-yl]-benzamide] | 0.1 to 0.5 µM | 
7 | COc1ccc2c(c1)nc(C(F)(F)F)n2-c1ccc(NC(=O)c2ccccc2I)nc1 [Compound 187, 2-Iodo-N-[5-(5-methoxy-2-trifluoromethyl-benzoimidazol-1-yl)-pyridin-2-yl]-benzamide] | < 0.1 µM | 
8 | COc1ccc2c(c1)nc(C(F)(F)F)n2-c1ccc(NC(=O)c2cccc(N(C)C)c2)nc1 [Compound 208, 3-Dimethylamino-N-[5-(5-methoxy-2-trifluoromethyl-benzoimidazol-1-yl)-pyridin-2-yl]-benzamide] | > 1 µM | 
9 | COc1ccc2c(c1)nc(C(F)(F)F)n2-c1ccc(NC(=O)c2ccc(Br)cc2)nc1 [Compound 196, 4-Bromo-N-[5-(5-methoxy-2-trifluoromethyl-benzoimidazol-1-yl)-pyridin-2-yl]-benzamide] | 0.1 to 0.5 µM | 
10 | COC(=O)c1cccc(C(=O)Nc2ccc(-n3c(C(F)(F)F)nc4cc(OC)ccc43)cn2)c1 [Compound 192, N-[5-(5-Methoxy-2-trifluoromethyl-benzoimidazol-1-yl)-pyridin-2-yl]-isophthalamic acid methyl ester] | 0.1 to 0.5 µM | 
11 | COc1ccc2c(c1)nc(C(F)(F)F)n2-c1ccc(NC(=O)c2scnc2Br)nc1 [Compound 195, 4-Bromo-thiazole-5-carboxylic acid [5-(5-methoxy-2-trifluoromethyl-benzoimidazol-1-yl)-pyridin-2-yl]-amide] | 0.1 to 0.5 µM | 
12 | COc1ccc2c(c1)nc(C(F)(F)F)n2-c1ccc(NC(=O)c2cccc(F)c2)nc1 [Compound 186, 3-Fluoro-N-[5-(5-methoxy-2-trifluoromethyl-benzoimidazol-1-yl)-pyridin-2-yl]-benzamide] |  | 0.5 to 1 µM
13 | CC(=O)Nc1ccc2nc(C(F)(F)F)n(-c3ccc(NC(=O)c4cccc(F)c4F)cc3)c2c1 [Compound 93, 2,3-Difluoro-N-[4-(2-trifluoromethyl-6-acetylamino-benzoimidazol-1-yl)-phenyl]-benzamide] |  | 0.5 to 1 µM
14 | COc1ccc2c(c1)nc(C(F)(F)F)n2-c1ccc(NC(=O)C(C)C)nc1 [Compound 214, N-[5-(5-Methoxy-2-trifluoromethyl-benzoimidazol-1-yl)-pyridin-2-yl]-isobutyramide] | > 1 µM | 
15 | CCCCNc1ccc(-n2c(C(F)(F)F)nc3cc(OC)ccc32)cn1 [Compound 165, Butyl[5-(5-methoxy-2-trifluoromethyl-benzoimidazol-1-yl)-pyridin-2-yl]-amine] | 0.1 to 0.5 µM | 
16 | COc1ccc2c(c1)nc(C(F)(F)F)n2-c1ccc(NC(=O)c2ccc(N(C)C)cc2)nc1 [Compound 203, 4-Dimethylamino-N-[5-(5-methoxy-2-trifluoromethyl-benzoimidazol-1-yl)-pyridin-2-yl]-benzamide] | > 1 µM | 
17 | COc1ccc2c(c1)nc(C(F)(F)F)n2-c1ccc(NC(=O)c2c(F)cccc2F)nc1 [Compound 163, 2,6-difluoro-N-(5-(5-methoxy-2-(trifluoromethyl)-1H-benzo[d]imidazol-1-yl)pyridin-2-yl)benzamide] | < 0.1 µM | 
18 | COc1ccc2c(c1)nc(C(F)(F)F)n2-c1ccc(NC(=O)c2cccc(C)c2C)nc1 [Compound 202, N-[5-(5-Methoxy-2-trifluoromethyl-benzoimidazol-1-yl)-pyridin-2-yl]-2,3-dimethyl-benzamide] | < 0.1 µM | 

Row | SMILES | IC50 (binned values) | IC50 [1]
19 | COc1ccc(CC(=O)Nc2ccc(-n3c(C(F)(F)F)nc4cc(OC)ccc43)cc2)cc1 [Compound 92, 2-(4-Methoxy-phenyl)-N-[4-(2-trifluoromethyl-5-methoxy-benzoimidazol-1-yl)-phenyl]-acetamide] |  | 0.5 to 1 µM
20 | COc1ccc2c(c1)nc(C(F)(F)F)n2-c1ccc(NC(=O)c2csnc2C)nc1 [Compound 194, 3-Methyl-isothiazole-4-carboxylic acid [5-(5-methoxy-2-trifluoromethyl-benzoimidazol-1-yl)-pyridin-2-yl]-amide] |  | 0.5 to 1 µM
21 | COc1ccc2c(c1)nc(C(F)(F)F)n2-c1ccc(NC(=O)c2csnn2)nc1 [Compound 205, [1,2,3]Thiadiazole-4-carboxylic acid [5-(5-methoxy-2-trifluoromethyl-benzoimidazol-1-yl)-pyridin-2-yl]-amide] | > 1 µM | 
22 | CCC(C)C(=O)Nc1ccc(-n2c(C(F)(F)F)nc3cc(OC)ccc32)cn1 (stereo not drawn) [Compound 168, N-[5-(5-Methoxy-2-trifluoromethyl-benzoimidazol-1-yl)-pyridin-2-yl]-2-methyl-butyramide] | 0.1 to 0.5 µM | 
23 | COc1ccc2c(c1)nc(C(F)(F)F)n2-c1ccc(NC(=O)Cc2cccs2)cc1 [Compound 94, 2-(Thien-2-yl)-N-[4-(2-trifluoromethyl-5-methoxy-benzoimidazol-1-yl)-phenyl]-acetamide] |  | 0.5 to 1 µM
24 | Nc1ccc(C(=O)Nc2ccc(-n3c(C(F)(F)F)nc4ccccc43)cc2)c(F)c1F [Compound 43, 2,3-Difluoro-4-amino-N-[4-(2-trifluoromethyl-benzoimidazol-1-yl)-phenyl]-benzamide] |  | 0.5 to 1 µM
25 | COc1ccc2c(c1)nc(C(F)(F)F)n2-c1ccc(NC(C)=O)nc1 [Compound 164, N-[5-(5-Methoxy-2-trifluoromethyl-benzoimidazol-1-yl)-pyridin-2-yl]-acetamide] | > 1 µM | 
26 | COc1ccc2c(c1)nc(C(F)(F)F)n2-c1ccc(NC(=O)c2ccc(SC)cc2)nc1 [Compound 210, N-[5-(5-Methoxy-2-trifluoromethyl-benzoimidazol-1-yl)-pyridin-2-yl]-4-methylsulfanyl-benzamide] | > 1 µM | 
27 | COc1ccc2c(c1)nc(C(F)(F)F)n2-c1ccc(NC(=O)c2cccc(Cl)c2Cl)nc1 [Compound 174, 2,3-Dichloro-N-[5-(5-methoxy-2-trifluoromethyl-benzoimidazol-1-yl)-pyridin-2-yl]-benzamide] | < 0.1 µM | 
28 | N#C/C(=C\c1ccc(-n2c(C(F)(F)F)nc3ccccc32)cc1)c1cccc(F)c1F [Compound 47, 1-(2,3-difluoro-phenyl)-3-[4-(2-trifluoromethyl-benzoimidazol-1-yl)-phenyl]-acrylonitrile] |  | 0.5 to 1 µM
29 | O=C(Nc1ccc(-n2c(C(F)(F)F)nc3ccccc32)nc1)c1cc(F)ccc1F [Compound 41, 2,5-Difiuoro-N-[2-(2-trifluoromethyl-benzoimidazol-1-yl)-pyrid-5-yl]-benzamide] |  | 0.5 to 1 µM
30 | COc1ccc2c(c1)nc(C(F)(F)F)n2-c1ccc(NC(=O)c2cccc(Br)c2)nc1 [Compound 191, 3-Bromo-N-[5-(5-methoxy-2-trifluoromethyl-benzoimidazol-1-yl)-pyridin-2-yl]-benzamide] | 0.1 to 0.5 µM | 
31 | COc1ccc2c(c1)nc(C(F)(F)F)n2-c1ccc(NC(=O)c2ccc(C)cc2C)nc1 [Compound 200, N-[5-(5-Methoxy-2-trifluoromethyl-benzoimidazol-1-yl)-pyridin-2-yl]-2,4-dimethyl-benzamide] |  | 0.5 to 1 µM
32 | COc1ccc2c(c1)nc(C(F)(F)F)n2-c1ccc(NC(=O)c2ccc(Cl)cc2F)nc1 [Compound 177, 4-Chloro-2-fluoro-N-[5-(5-methoxy-2-trifluoromethyl-benzoimidazol-1-yl)-pyridin-2-yl]-benzamide] | 0.1 to 0.5 µM | 
33 | COc1ccc2c(c1)nc(C(F)(F)F)n2-c1ccc(NC(=O)C2CC2)nc1 [Compound 172, Cyclopropanecarboxylic acid [5-(5-methoxy-2-trifluoromethyl-benzoimidazol-1-yl)-pyridin-2-yl]-amide] | > 1 µM | 
34 | COc1ccc2c(c1)nc(C(F)(F)F)n2-c1ccc(NC(=O)c2ccc(F)cc2F)nc1 [Compound 175] | < 0.1 µM | 
35 | COc1cccc(C(=O)Nc2ccc(-n3c(C(F)(F)F)nc4cc(OC)ccc43)cn2)c1 [Compound 204, 3-Methoxy-N-[5-(5-methoxy-2-trifluoromethyl-benzoimidazol-1-yl)-pyridin-2-yl]-benzamide] | > 1 µM | 
36 | COc1ccc2c(c1)nc(C(F)(F)F)n2-c1ccc(NC(=O)c2ccc(Cl)cc2)nc1 [Compound 171, 4-Chloro-N-[5-(5-methoxy-2-trifluoromethyl-benzoimidazol-1-yl)-pyridin-2-yl]-benzamide] |  | 0.5 to 1 µM
